# Target: T1, GST-RIPK1 (recombinant GST-RIPK1 kinase domain (residues 1-327)) (Homo sapiens, UniProt Q13546)
# T1 construct: recombinant GST-RIPK1 kinase domain (residues 1-327) enzyme produced from baculovirus-transfected Sf21 cells; host or cells: baculovirus-transfected Sf21 insect cells
# T1 sequence (Q13546 1-327): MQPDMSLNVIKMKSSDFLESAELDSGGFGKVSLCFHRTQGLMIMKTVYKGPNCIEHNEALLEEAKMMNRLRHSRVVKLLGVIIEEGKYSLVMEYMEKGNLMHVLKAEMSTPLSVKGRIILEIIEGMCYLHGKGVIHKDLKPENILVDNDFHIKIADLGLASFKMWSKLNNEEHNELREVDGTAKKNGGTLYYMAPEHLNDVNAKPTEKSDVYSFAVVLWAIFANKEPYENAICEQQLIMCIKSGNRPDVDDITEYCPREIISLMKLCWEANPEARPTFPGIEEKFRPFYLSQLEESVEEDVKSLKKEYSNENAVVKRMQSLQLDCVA
# Assay: RIPK1-ADP-Glo Enzymatic Assay
# Type: biochemical
# Details: ten-point titration, top compound concentration of 100000 nM; 25 nM GST-RIPK1, 300 μM ATP, 3 μM dephosphorylated-MBP; 30 min pre-incubation, 150 min reaction
# Method in brief: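 ADP-Glo luminescence quantifies ADP formed over 150 minutes by 25 nM Sf21-produced GST-RIPK1 (1-327) using 300 μM ATP and 3 μM dephosphorylated MBP, following 30-minute compound preincubation at 1% DMSO. Ten-point 1:3 series from 100000 nM gave EC50 via four-parameter sigmoidal regression.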
row,SMILES,EC50
1,"O=C1N2[C@@H](CC[C@H]2c2ccc(F)cc2)O[C@]12C[C@H](Oc1ccnn3cccc13)C2 [Example 8.22, (1r,3R,5′S,7a′R)-5′-(4-fluorophenyl)-3-(pyrrolo[1,2-b]pyridazin-4-yloxy)tetrahydro-3′H-spiro[cyclobutane-1,2′-pyrrolo[2,1-b]oxazol]-3′-one]",0.029 µM
2,"O=C1N2C(CC[C@H]2c2cnccn2)OC12CC(OCc1cnc3nccn3c1)C2 (stereo partly drawn) [Example 18.94, (5′S)-3-[(imidazo[1,2-a]pyrimidin-6-yl)methoxy]-5′-(pyrazin-2-yl)tetrahydro-3′H-spiro[cyclobutane-1,2′-pyrrolo[2,1-b][1,3]oxazol]-3′-one]",0.283 µM
3,"O=C1N2C(CC[C@H]2c2cnccn2)OC12CC(OCc1ccc(C(F)F)cn1)C2 (stereo partly drawn) [Example 18.11, (5′S)-3-{[5-(difluoromethyl)pyridin-2-yl]methoxy}-5′-(pyrazin-2-yl)tetrahydro-3′H-spiro[cyclobutane-1,2′-pyrrolo[2,1-b][1,3]oxazol]-3′-one]",0.089 µM
4,"N#Cc1cc(O[C@H]2C[C@@]3(C2)O[C@H]2CC[C@H](c4cnccn4)N2C3=O)ncn1 [Example 9.50, 6-(((5′R,7a′S)-3′-oxo-5′-(pyrazin-2-yl)tetrahydro-3′H-spiro[cyclobutane-1,2′-pyrrolo[2,1-b]oxazol]-3-yl)oxy)pyrimidine-4-carbonitrile]",0.33 µM
5,"COCCOc1ccc(COC2CC3(C2)OC2CC[C@@H](c4cnccn4)N2C3=O)cc1 (stereo partly drawn) [Example 18.99, (5′S)-3-{[4-(2-methoxyethoxy)phenyl]methoxy}-5′-(pyrazin-2-yl)tetrahydro-3′H-spiro[cyclobutane-1,2′-pyrrolo[2,1-b][1,3]oxazol]-3′-one]",0.205 µM
6,"Cn1cc2cc(COC3CC4(C3)O[C@@H]3CC[C@@H](c5cnccn5)N3C4=O)ccc2n1 (stereo partly drawn) [Example 20.3, (5′S,7a′R)-3-[(2-methyl-2H-indazol-5-yl)methoxy]-5′-(pyrazin-2-yl)tetrahydro-3′H-spiro[cyclobutane-1,2′-pyrrolo[2,1-b][1,3]oxazol]-3′-one]",0.126 µM
7,"O=C1N2C(CC[C@H]2c2cnccn2)OC12CC(OCc1ccc3c(c1)CCO3)C2 (stereo partly drawn) [Example 18.108, (5′S)-3-((2,3-dihydrobenzofuran-5-yl)methoxy)-5′-(pyrazin-2-yl)tetrahydro-3′H-spiro[cyclobutane-1,2′-pyrrolo[2,1-b]oxazol]-3′-one]",0.094 µM
8,"O=C1N2[C@@H](CC[C@H]2c2cnccn2)OC12CC(OCc1ccc(-c3nnco3)cc1)C2 (stereo partly drawn) [Example 18.58, (5′S, 7a′R)-3-{[4-(1,3,4-oxadiazol-2-yl)phenyl]methoxy}-5′-(pyrazin-2-yl)tetrahydro-3′H-spiro[cyclobutane-1,2′-pyrrolo[2,1-b][1,3]oxazol]-3′-one]",0.04 µM
9,"O=C1N2C(CC[C@H]2c2cnccn2)OC12CC(OCc1cnn(C3CC3)c1)C2 (stereo partly drawn) [Example 18.3, (5′S)-3-[(1-cyclopropyl-1H-pyrazol-4-yl)methoxy]-5′-(pyrazin-2-yl)tetrahydro-3′H-spiro[cyclobutane-1,2′-pyrrolo [2,1-b][1,3]oxazol]-3′-one]",0.969 µM
10,"O=C1N2C(CC[C@H]2c2cnccn2)OC12CC(OCc1ccnc3ccnn13)C2 (stereo partly drawn) [Example 18.31, (5′S)-5′-(pyrazin-2-yl)-3-[(pyrazolo[1,5-a]pyrimidin-7-yl)methoxy]tetrahydro-3′H-spiro[cyclobutane-1,2′-pyrrolo[2,1-b][1,3]oxazol]-3′-one]",0.428 µM
11,"Cc1nc(O[C@H]2C[C@@]3(C2)O[C@@H]2CC[C@@H](c4cc(F)cc(F)c4)N2C3=O)c2cccn2n1 [Example 9.29, (1r,3R,5′S,7a′R)-5′-(3,5-difluorophenyl)-3-[(2-methylpyrrolo[2,1-f][1,2,4]triazin-4-yl)oxy]tetrahydro-3′H-spiro[cyclobutane-1,2′-pyrrolo[2,1-b][1,3]oxazol]-3′-one]",0.047 µM
12,"O=C1N2[C@@H](CC[C@H]2c2ccc(F)cc2)OC12CC(OCc1cccnc1)C2 (stereo partly drawn) [Example 9.60, (5′S,7a′R)-5′-(4-fluorophenyl)-3-[(pyridin-3-yl)methoxy]tetrahydro-3′H-spiro[cyclobutane-1,2′-pyrrolo[2,1-b][1,3]oxazol]-3′-one]",0.188 µM
13,"O=C1N2C(CC[C@H]2c2cnccn2)OC12CC(OCc1ccc3nccn3c1)C2 (stereo partly drawn) [Example 18.19, (5′S)-3-[(imidazo[1,2-a]pyridin-6-yl)methoxy]-5′-(pyrazin-2-yl)tetrahydro-3′H-spiro[cyclobutane-1,2′-pyrrolo[2,1-b][1,3]oxazol]-3′-one]",0.11 µM
14,"O=C1N2[C@@H](CC[C@H]2c2ccccc2)OC12CC(Oc1cccc(-c3nnco3)c1)C2 (stereo partly drawn) [Example 8.16, (5′S,7a′R)-3-[3-(1,3,4-oxadiazol-2-yl)phenoxy]-5′-phenyltetrahydro-3′H-spiro[cyclobutane-1,2′-pyrrolo[2,1-b][1,3]oxazol]-3′-one]",0.058 µM
15,"O=C1N2[C@@H](CC[C@H]2c2ccc(F)cc2)OC12CC(Oc1nccn3ccnc13)C2 (stereo partly drawn) [Example 9.58, (5′S,7a′R)-5′-(4-fluorophenyl)-3-[(imidazo[1,2-a]pyrazin-8-yl)oxy]tetrahydro-3′H-spiro[cyclobutane-1,2′-pyrrolo[2,1-b][1,3]oxazol]-3′-one]",0.467 µM
16,"O=C1N2[C@H](O[C@]13C[C@@H](OCc1ccccc1)C3)[C@H](O)C[C@H]2c1cnccn1 [Example 21.2, (1s,3S,5′S,7′R,7a′R)-3-(benzyloxy)-7′-hydroxy-5′-(pyrazin-2-yl)tetrahydro-3′H-spiro[cyclobutane-1,2′-pyrrolo[2,1-b]oxazol]-3′-one]",0.106 µM
17,"O=C1N2[C@@H](CC[C@H]2c2cc(F)cc(F)c2)OC12CC(Oc1ccccc1)C2 (single isomer, unassigned) [Example 16.2, ((1r or s),3R,5′S,7a′R)-5′-(3,5-difluorophenyl)-3-phenoxytetrahydro-3′H-spiro[cyclobutane-1,2′-pyrrolo[2,1-b]oxazol]-3′-one]",0.029 µM

# These reach a lower EC50. Values come first.
row,EC50,SMILES
1,0.019 µM,"O=C1N2[C@@H](CC[C@H]2c2ccccc2)OC12CCC(Oc1cnccn1)CC2 (mixture of isomers) [Example 9.52, (5′S,7a′R)-5′-phenyl-4-[(pyrazin-2-yl)oxy]tetrahydro-3′H-spiro[cyclohexane-1,2′-pyrrolo[2,1-b][1,3]oxazol]-3′-one]"
2,0.021 µM,"O=C1N2[C@@H](CC[C@H]2c2cnccn2)OC12CC(Oc1ccccc1)C2 (stereo partly drawn) [Example 19.17, (5′S,7a′R)-3-phenoxy-5′-(pyrazin-2-yl)tetrahydro-3′H-spiro[cyclobutane-1,2′-pyrrolo[2,1-b][1,3]oxazol]-3′-one]"
3,0.015 µM,"O=C1N2[C@@H](CC[C@H]2c2cnccn2)OC12CC(OCc1cccc(Cl)c1)C2 (stereo partly drawn) [Example 22.6, (5′S,7a′R)-3-[(3-chlorophenyl)methoxy]-5′-(pyrazin-2-yl)tetrahydro-3′H-spiro[cyclobutane-1,2′-pyrrolo[2,1-b][1,3]oxazol]-3′-one]"
4,0.024 µM,"O=C1N2[C@@H](CC[C@H]2c2cnccn2)OC12CC(OCc1ccccc1)C2 (stereo partly drawn) [Example 4.2, ((1s),3R,5′S,7a′R)-3-(benzyloxy)-5′-(pyrazin-2-yl)tetrahydro-3′H-spiro[cyclobutane-1,2′-pyrrolo[2,1-b]oxazol]-3′-one]"
5,0.008 µM,"Cc1cc2c(O[C@H]3C[C@@]4(C3)O[C@@H]3CC[C@@H](c5cc(F)cc(F)c5)N3C4=O)ncnc2s1 [Example 9.33, (1r,3R,5′S,7a′R)-5′-(3,5-difluorophenyl)-3-[(6-methylthieno[2,3-d]pyrimidin-4-yl)oxy]tetrahydro-3′H-spiro[cyclobutane-1,2′-pyrrolo[2,1-b][1,3]oxazol]-3′-one]"
6,0.015 µM,"O=C1N2[C@@H](CC[C@H]2c2cnccn2)OC12CC(OCc1cccc(F)c1)C2 (single isomer, unassigned) [Example 22.5]"
7,0.019 µM,"N#Cc1ccc2c(O[C@H]3C[C@@]4(C3)O[C@@H]3CC[C@@H](c5ccc(F)cc5)N3C4=O)ncnn12 [Example 11.3, 4-(((1r,3R,5′S,7a′R)-5′-(4-fluorophenyl)-3′-oxotetrahydro-3′H-spiro[cyclobutane-1,2′-pyrrolo[2,1-b]oxazol]-3-yl)oxy)pyrrolo[2,1-f][1,2,4]triazine-7-carbonitrile]"
8,0.014 µM,"O=C1N2C(CC[C@H]2c2cnccn2)OC12CC(OCc1ccc(N3CCOCC3)nc1)C2 (stereo partly drawn) [Example 18.35, (5′S)-3-{[6-(morpholin-4-yl)pyridin-3-yl]methoxy}-5′-(pyrazin-2-yl)tetrahydro-3′H-spiro[cyclobutane-1,2′-pyrrolo[2,1-b][1,3]oxazol]-3′-one]"
9,0.012 µM,"O=C1N2[C@@H](CC[C@H]2c2cnccn2)OC12CC(Oc1ccc(F)c(F)c1)C2 (stereo partly drawn) [Example 19.22, (5′S,7a′R)-3-(3,4-difluorophenoxy)-5′-(pyrazin-2-yl)tetrahydro-3′H-spiro[cyclobutane-1,2′-pyrrolo[2,1-b][1,3]oxazol]-3′-one]"
10,0.027 µM,"O=C1N2[C@@H](CC[C@H]2c2cnccn2)OC12CC(Oc1cccnc1)C2 (stereo partly drawn) [Example 19.21, (5′S,7a′R)-5′-(pyrazin-2-yl)-3-[(pyridin-3-yl)oxy]tetrahydro-3′H-spiro[cyclobutane-1,2′-pyrrolo[2,1-b][1,3]oxazol]-3′-one]"

# Source: US20250154173A1 (Merck Sharp & Dohme LLC, priority 2023, published 2025)
